From PubChem BioAssay (NCI)
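Following 48 hours of exposure in 96-well plates, responses at five concentrations were used to interpolate endpoints linearly. GI50: concentration for 50% inhibition of growth. TGI is the concentration that stops growth completely.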

What was measured:
Assay in all cases: growth of human tumour cells (NCI), 48 h; in the data active = GI50 below about 0.43 µM; inactive = the rest
A498 renal = tested on: A498 renal
EKVX NSCLC = tested on: EKVX NSCLC
KM12 colon = tested on: KM12 colon
MCF7 breast = tested on: MCF7 breast
NCI-H23 lung = tested on: NCI-H23 lung
PC-3 prostate = tested on: PC-3 prostate
SF-539 CNS = tested on: SF-539 CNS
SK-MEL-28 melanoma = tested on: SK-MEL-28 melanoma
SW-620 colon = tested on: SW-620 colon
HCC-2998 colon = tested on: HCC-2998 colon

CC(CC(=O)O)C(C(=O)O)C(=O)O (configuration not stated)
> 100 µM: TGI (A498 renal) | TGI (EKVX NSCLC) | TGI (KM12 colon) | TGI (MCF7 breast) | TGI (NCI-H23 lung) | TGI (PC-3 prostate) | TGI (SF-539 CNS) | TGI (SK-MEL-28 melanoma) | TGI (SW-620 colon)

O=c1cc2oc3cc(O)c(O)cc3c(-c3ccccc3O)c-2cc1O
inactive: GI50 (A498 renal) 1.44 µM | GI50 (EKVX NSCLC) 29.2 µM | GI50 (KM12 colon) 30.7 µM | GI50 (MCF7 breast) 18.4 µM | GI50 (NCI-H23 lung) 3.88 µM | GI50 (PC-3 prostate) 36.1 µM | GI50 (SF-539 CNS) 6.16 µM | GI50 (SK-MEL-28 melanoma) 37.2 µM | GI50 (SW-620 colon) 32.7 µM
8.36 µM: TGI (A498 renal)
> 100 µM: TGI (EKVX NSCLC) | TGI (KM12 colon) | TGI (MCF7 breast) | TGI (PC-3 prostate) | TGI (SF-539 CNS) | TGI (SK-MEL-28 melanoma) | TGI (SW-620 colon)
39.1 µM: TGI (NCI-H23 lung)

O=c1[nH]cc(COCCO)c(=O)[nH]1
> 100 µM: TGI (A498 renal) | TGI (EKVX NSCLC) | TGI (KM12 colon) | TGI (NCI-H23 lung) | TGI (SF-539 CNS) | TGI (SK-MEL-28 melanoma) | TGI (SW-620 colon)

Cc1cn2c(/C=C3\C(=O)Nc4ccc(O)cc43)c(-c3ccc(Cl)cc3)nc2s1
33.9 µM: TGI (SF-539 CNS)
33.8 µM: TGI (MCF7 breast)
> 100 µM: TGI (KM12 colon) | TGI (PC-3 prostate) | TGI (SW-620 colon)
60.6 µM: TGI (EKVX NSCLC)
35.8 µM: TGI (NCI-H23 lung)
38.8 µM: TGI (A498 renal)
28.1 µM: TGI (SK-MEL-28 melanoma)
inactive: GI50 (A498 renal) 16.8 µM | GI50 (EKVX NSCLC) 14.9 µM | GI50 (KM12 colon) 45.4 µM | GI50 (MCF7 breast) 14.2 µM | GI50 (NCI-H23 lung) 15.8 µM | GI50 (PC-3 prostate) 22.2 µM | GI50 (SF-539 CNS) 17.5 µM | GI50 (SK-MEL-28 melanoma) 12.2 µM | GI50 (SW-620 colon) 35.6 µM

O=C1c2ccccc2C2(O)c3cc4ccccc4cc3OC12O (configuration not stated)
> 100 µM: TGI (A498 renal) | TGI (EKVX NSCLC) | TGI (HCC-2998 colon) | TGI (KM12 colon) | TGI (NCI-H23 lung) | TGI (SF-539 CNS) | TGI (SK-MEL-28 melanoma) | TGI (SW-620 colon)

Cc1ccc(S(=O)(=O)N/N=C/c2oc(-c3ccncc3)c(-c3ccncc3)c2[N+](=O)[O-])cc1
> 100 µM: TGI (A498 renal) | TGI (EKVX NSCLC) | TGI (HCC-2998 colon) | TGI (KM12 colon) | TGI (NCI-H23 lung) | TGI (SF-539 CNS) | TGI (SK-MEL-28 melanoma) | TGI (SW-620 colon)

O=C1CC(C[C@H](O)C2CCCCC2O)CC(=O)N1Cc1ccccc1 (some centres not stated)
> 100 µM: TGI (A498 renal) | TGI (EKVX NSCLC) | TGI (HCC-2998 colon) | TGI (KM12 colon) | TGI (NCI-H23 lung) | TGI (SF-539 CNS) | TGI (SK-MEL-28 melanoma) | TGI (SW-620 colon)

COc1ccc(-c2cc(-c3ccccc3)c(C#N)c(=O)n2C2OC(CO)C(O)C(O)C2O)cc1 (configuration not stated)
> 100 µM: TGI (A498 renal) | TGI (EKVX NSCLC) | TGI (HCC-2998 colon) | TGI (KM12 colon) | TGI (NCI-H23 lung) | TGI (SF-539 CNS) | TGI (SK-MEL-28 melanoma) | TGI (SW-620 colon)

Cc1c(Cl)cccc1N1C(=O)C(Cl)=C(Cl)C1=O
> 100 µM: TGI (A498 renal) | TGI (EKVX NSCLC) | TGI (HCC-2998 colon) | TGI (KM12 colon) | TGI (NCI-H23 lung) | TGI (SF-539 CNS) | TGI (SK-MEL-28 melanoma) | TGI (SW-620 colon)

O=C(NCCCCN=c1cccccc1NCCCCNC(=O)OCc1ccccc1)OCc1ccccc1
81.4 µM: TGI (EKVX NSCLC)
48.8 µM: TGI (NCI-H23 lung)
32.4 µM: TGI (KM12 colon)
39.6 µM: TGI (SK-MEL-28 melanoma)
32.1 µM: TGI (HCC-2998 colon)
31.8 µM: TGI (SF-539 CNS)
41.7 µM: TGI (SW-620 colon)

O=C(Nc1cc(Cl)ccc1Cl)c1cc2cccc(Cl)c2oc1=O
> 100 µM: TGI (EKVX NSCLC) | TGI (KM12 colon) | TGI (NCI-H23 lung) | TGI (SF-539 CNS) | TGI (SK-MEL-28 melanoma) | TGI (SW-620 colon)

Ic1ccc(-n2nnnc2-c2cnoc2-c2ccccc2)cc1
> 100 µM: TGI (MCF7 breast) | TGI (SK-MEL-28 melanoma) | TGI (SW-620 colon)
> 71.4 µM: TGI (PC-3 prostate)
> 21.7 µM: TGI (EKVX NSCLC)
> 81 µM: TGI (NCI-H23 lung)
74.4 µM: TGI (A498 renal)
> 89.6 µM: TGI (KM12 colon)
inactive: GI50 (A498 renal) 22 µM | GI50 (EKVX NSCLC) 7.49 µM | GI50 (KM12 colon) 47.1 µM | GI50 (MCF7 breast) 35.2 µM | GI50 (NCI-H23 lung) 35.4 µM | GI50 (PC-3 prostate) > 34.4 µM | GI50 (SK-MEL-28 melanoma) > 62.2 µM | GI50 (SW-620 colon) 39.6 µM
3.98 µM: TGI (SF-539 CNS)

COc1ccc(/C(=N\NC(=O)C(N)=O)C(c2ccc(OC)cc2)C2(O)C(=O)Nc3c(Cl)cccc32)cc1 (configuration not stated)
> 100 µM: TGI (EKVX NSCLC) | TGI (HCC-2998 colon) | TGI (KM12 colon) | TGI (NCI-H23 lung) | TGI (SK-MEL-28 melanoma) | TGI (SW-620 colon)

CC(=O)n1c2c(c(=O)n1-c1ccccc1)S(=O)CCC2 (configuration not stated)
> 100 µM: TGI (A498 renal) | TGI (EKVX NSCLC) | TGI (HCC-2998 colon) | TGI (KM12 colon) | TGI (NCI-H23 lung) | TGI (SF-539 CNS) | TGI (SK-MEL-28 melanoma) | TGI (SW-620 colon)

CCCn1c(N)c(C(=O)N/N=C(/C)c2cc3cccc(OC)c3o2)sc1=S
90.7 µM: TGI (SF-539 CNS)
inactive: GI50 (A498 renal) 65.4 µM | GI50 (EKVX NSCLC) 32.6 µM | GI50 (KM12 colon) 22.2 µM | GI50 (MCF7 breast) 28 µM | GI50 (NCI-H23 lung) 41.1 µM | GI50 (PC-3 prostate) 30.6 µM | GI50 (SF-539 CNS) 17.1 µM | GI50 (SK-MEL-28 melanoma) 49.7 µM | GI50 (SW-620 colon) 19.2 µM
> 100 µM: TGI (A498 renal) | TGI (EKVX NSCLC) | TGI (KM12 colon) | TGI (MCF7 breast) | TGI (NCI-H23 lung) | TGI (PC-3 prostate) | TGI (SK-MEL-28 melanoma) | TGI (SW-620 colon)

CCOC(=O)NC(=O)c1cn(CCOC(=O)NCCCCCCNC(=O)OCCn2cc(C(=O)NC(=O)OCC)c(=O)[nH]c2=O)c(=O)[nH]c1=O
> 100 µM: TGI (A498 renal) | TGI (EKVX NSCLC) | TGI (HCC-2998 colon) | TGI (KM12 colon) | TGI (SK-MEL-28 melanoma) | TGI (SW-620 colon)

CCOC(=O)C(C)(C)Oc1ccc2c(C)c(-c3ccc(Cl)cc3)c(=O)oc2c1
> 100 µM: TGI (A498 renal) | TGI (EKVX NSCLC) | TGI (HCC-2998 colon) | TGI (NCI-H23 lung) | TGI (SF-539 CNS) | TGI (SK-MEL-28 melanoma) | TGI (SW-620 colon)

COC1[C@@H](OC(C)=O)[C@@H](NC(=O)C(Cl)(Cl)Cl)C(I)[C@@H](N2C(=O)c3ccccc3C2=O)[C@H]1OC (some centres not stated)
> 100 µM: TGI (A498 renal) | TGI (EKVX NSCLC) | TGI (KM12 colon) | TGI (NCI-H23 lung) | TGI (SF-539 CNS) | TGI (SK-MEL-28 melanoma) | TGI (SW-620 colon)

Nc1nc(N)c(N=Nc2ccc([As](=O)(O)O)cc2)c(=O)[nH]1
> 100 µM: TGI (A498 renal) | TGI (EKVX NSCLC) | TGI (HCC-2998 colon) | TGI (KM12 colon) | TGI (MCF7 breast) | TGI (NCI-H23 lung) | TGI (PC-3 prostate) | TGI (SK-MEL-28 melanoma) | TGI (SW-620 colon)

c1ccc(SC2CCSc3ccccc3C2Sc2ccccc2)cc1 (configuration not stated)
> 100 µM: TGI (A498 renal) | TGI (EKVX NSCLC) | TGI (HCC-2998 colon) | TGI (KM12 colon) | TGI (SF-539 CNS) | TGI (SW-620 colon)

CCOc1ccc2c(c1)[n+]([O-])c(-c1ccccc1Cl)c(N)[n+]2[O-]
> 100 µM: TGI (A498 renal) | TGI (EKVX NSCLC) | TGI (KM12 colon) | TGI (NCI-H23 lung) | TGI (SF-539 CNS) | TGI (SK-MEL-28 melanoma) | TGI (SW-620 colon)

COC(=O)[C@]1(C)CCCC2(C)C1CC[C@H]1C=C(C)[C@H]3CCC12C3 (some centres not stated)
> 100 µM: TGI (HCC-2998 colon) | TGI (KM12 colon) | TGI (NCI-H23 lung) | TGI (SF-539 CNS) | TGI (SK-MEL-28 melanoma) | TGI (SW-620 colon)
